Test: excess molar enthalpy (molar enthalpy of mixing); xn = mol fraction of the nth substance listed
Details: 100 kPa, Liquid, Calvet calorimetry

NCCNCCNCCN [1,2-ethanediamine, N,N'-bis(2-aminoethyl)-] + O
Details | excess molar enthalpy [kcal/mol]
303.15 K, x1 = 0.0497 | -0.671
303.15 K, x1 = 0.0697 | -0.889
303.15 K, x1 = 0.1129 | -1.25
303.15 K, x1 = 0.2006 | -1.57
303.15 K, x1 = 0.2478 | -1.62
303.15 K, x1 = 0.3031 | -1.6
303.15 K, x1 = 0.3527 | -1.55
303.15 K, x1 = 0.4038 | -1.4
303.15 K, x1 = 0.5069 | -1.15
303.15 K, x1 = 0.589 | -0.974
303.15 K, x1 = 0.701 | -0.71
323.15 K, x1 = 0.0496 | -0.633
323.15 K, x1 = 0.1103 | -1.2
323.15 K, x1 = 0.1998 | -1.44
323.15 K, x1 = 0.2469 | -1.5
323.15 K, x1 = 0.3041 | -1.49
323.15 K, x1 = 0.4041 | -1.32
323.15 K, x1 = 0.4995 | -1.11
323.15 K, x1 = 0.602 | -0.91
323.15 K, x1 = 0.7006 | -0.636

NCCOCCO [2-(2-aminoethoxy)ethanol] + O
Details | excess molar enthalpy [kcal/mol]
303.15 K, x1 = 0.0626 | -0.24
303.15 K, x1 = 0.1041 | -0.355
303.15 K, x1 = 0.1949 | -0.509
303.15 K, x1 = 0.3027 | -0.551
303.15 K, x1 = 0.3448 | -0.565
303.15 K, x1 = 0.398 | -0.556
303.15 K, x1 = 0.5045 | -0.483
303.15 K, x1 = 0.604 | -0.414
303.15 K, x1 = 0.7062 | -0.333
303.15 K, x1 = 0.8105 | -0.223
303.15 K, x1 = 0.9035 | -0.11
323.15 K, x1 = 0.0628 | -0.222
323.15 K, x1 = 0.1062 | -0.335
323.15 K, x1 = 0.1982 | -0.468
323.15 K, x1 = 0.3017 | -0.527
323.15 K, x1 = 0.342 | -0.539
323.15 K, x1 = 0.4004 | -0.527
323.15 K, x1 = 0.5053 | -0.483
323.15 K, x1 = 0.5967 | -0.417
323.15 K, x1 = 0.7043 | -0.329
323.15 K, x1 = 0.8037 | -0.224
323.15 K, x1 = 0.9032 | -0.107

CN(C)CCN(C)CCO [2-{[2-(dimethylamino)ethyl](methyl)amino}ethanol] + O
303.15 K
Details | excess molar enthalpy [kcal/mol]
x1 = 0.1012 | -0.696
x1 = 0.2028 | -0.863
x1 = 0.25 | -0.894
x1 = 0.3015 | -0.862
x1 = 0.4004 | -0.836
x1 = 0.4989 | -0.716

CN(C)CCCO [3-dimethylamino-1-propanol] + O
Details | excess molar enthalpy [kcal/mol]
303.15 K, x1 = 0.0505 | -0.252
303.15 K, x1 = 0.1027 | -0.436
303.15 K, x1 = 0.1998 | -0.601
303.15 K, x1 = 0.3003 | -0.683
303.15 K, x1 = 0.3515 | -0.689
303.15 K, x1 = 0.3975 | -0.69
303.15 K, x1 = 0.5019 | -0.647
303.15 K, x1 = 0.6483 | -0.502
303.15 K, x1 = 0.8001 | -0.301
303.15 K, x1 = 0.9452 | -0.0951
323.15 K, x1 = 0.0495 | -0.229
323.15 K, x1 = 0.1003 | -0.35
323.15 K, x1 = 0.1782 | -0.485
323.15 K, x1 = 0.3006 | -0.587
323.15 K, x1 = 0.3485 | -0.597
323.15 K, x1 = 0.3981 | -0.6
323.15 K, x1 = 0.4977 | -0.568
323.15 K, x1 = 0.6455 | -0.438
323.15 K, x1 = 0.7962 | -0.269
323.15 K, x1 = 0.9446 | -0.0743

CCN(CC)CCO [(diethylamino)ethanol] + O
Details | excess molar enthalpy [kcal/mol]
303.15 K, x1 = 0.0504 | -0.253
303.15 K, x1 = 0.1001 | -0.377
303.15 K, x1 = 0.2008 | -0.522
303.15 K, x1 = 0.301 | -0.607
303.15 K, x1 = 0.3688 | -0.62
303.15 K, x1 = 0.387 | -0.625
303.15 K, x1 = 0.4002 | -0.621
303.15 K, x1 = 0.4522 | -0.611
303.15 K, x1 = 0.5002 | -0.598
303.15 K, x1 = 0.5998 | -0.528
303.15 K, x1 = 0.7003 | -0.418
303.15 K, x1 = 0.8007 | -0.288
303.15 K, x1 = 0.901 | -0.144
323.15 K, x1 = 0.0502 | -0.192
323.15 K, x1 = 0.1009 | -0.296
323.15 K, x1 = 0.1951 | -0.407
323.15 K, x1 = 0.3002 | -0.482
323.15 K, x1 = 0.369 | -0.499
323.15 K, x1 = 0.4006 | -0.502
323.15 K, x1 = 0.5005 | -0.477
323.15 K, x1 = 0.6 | -0.422
323.15 K, x1 = 0.6191 | -0.386
323.15 K, x1 = 0.6997 | -0.341
323.15 K, x1 = 0.8005 | -0.252
323.15 K, x1 = 0.9006 | -0.12

— the NIST ThermoML archive (doi:10.1016/j.jct.2015.04.030)
